PMC9721025, “Pharmacokinetic study of the main components of Tanreqing capsules and Tanreqing injections in beagles by liquid chromatography–tandem mass spectrometry” (Chinese Medicine, 2022)
Read-outs that look alike come from different tables or passages of the source.

Experiments:
[1] = Pharmacokinetics in beagles, multiple-dose regimen (once per day for 7 days) of TRQI or TRQC, plasma LC-MS/MS; format: in vivo; conditions: beagle, dog; for Cmax at 7 days / Tmax at 7 days / half-life at 7 days: mean
Summary of the method: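 Six beagles dosed once daily for 7 days with TRQI (0.5 mL/kg injection) or TRQC (0.09 g/kg), crossover after washout. Plasma sampled 0–24 h after seventh dose, methanol/acetonitrile-precipitated, measured by LC–MS/MS. Steady-state parameters by non-compartmental analysis.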

[2] = Stability of analytes in dog plasma (QC samples); format: in vitro ADME
Summary of the method: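 QC samples in dog plasma at three concentration levels, three replicates each, tested for short-term (6 h room temperature), long-term (−80 °C, 30 days) and freeze–thaw (three cycles, −80 °C to room temperature) stability. Working solutions prepared in methanol/water 10:90.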

[3] = Pharmacokinetics in beagles, single-dose regimen of TRQI (i.v.) or TRQC (oral), plasma LC-MS/MS; format: in vivo, beagle; conditions: for AUC(0-t) / Cmax / Tmax / half-life: beagle, dog, plasma; for AUC(0-t): read-out: AUC0–24 h; for Cmax / Tmax / half-life: mean of six beagles
Summary of the method: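 Crossover study in six beagles (9.0–12.0 kg) with a 7-day washout: TRQI 0.5 mL/kg i.v. or TRQC 0.09 g/kg orally, single dose. Plasma was sampled at 14 points to 24 h, protein-precipitated, analysed by LC–MS/MS, with parameters from non-compartmental analysis.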

[4] = cited from earlier work; for t1/2: Tanreqing injection
[5] = both sexes, iv, TRQI 0.5 mL/kg once per day for 7 days
[6] = both sexes, po, TRQC 0.09 g/kg once per day for 7 days
[7] = n = 3, high QC: nominal 200 ng/mL baicalin, 1000 ursodeoxycholic acid, 100 chenodeoxycholic acid and chlorogenic acid
[8] = n = 3, low QC: nominal 4 ng/mL baicalin, 20 ursodeoxycholic acid, 2 chenodeoxycholic acid and chlorogenic acid
[9] = n = 3, middle QC: nominal 20 ng/mL baicalin, 100 ursodeoxycholic acid, 10 chenodeoxycholic acid and chlorogenic acid
[10] = both sexes, iv, single i.v. dose of TRQI 0.5 mL/kg
[11] = both sexes, single oral dose of TRQC 0.09 g/kg

O=C(O)[C@H]1O[C@@H](Oc2cc3oc(-c4ccccc4)cc(=O)c3c(O)c2O)[C@H](O)[C@@H](O)[C@@H]1O [Baicalin, baicalin]
AUC(0-inf) ([1]; both sexes, iv, 0.5 mL/kg, TRQI 0.5 mL/kg for 7 days, Mean): 548 ng·h/mL | AUC(0-t) ([1]; both sexes, iv, 0.5 mL/kg, TRQI 0.5 mL/kg for 7 days, Mean, read-out: AUC0–24 h): 395 ng·h/mL | Cmax at 7 days [1, 5]: 1370 ng/mL | Tmax at 7 days [1, 5]: 0.11 h | half-life at 7 days [1, 5]: 5.54 h | AUC(0-inf) ([1]; both sexes, po, 0.09 g/kg, TRQC 0.09 g/kg for 7 days, Mean): 142 ng·h/mL | AUC(0-t) ([1]; both sexes, po, 0.09 g/kg, TRQC 0.09 g/kg for 7 days, Mean, read-out: AUC0–24 h): 107 ng·h/mL | Cmax at 7 days [1, 6]: 12.2 ng/mL | Tmax at 7 days [1, 6]: 7.25 h | half-life at 7 days [1, 6]: 12.1 h | AUC(0-inf) ([1]; female, iv, 0.5 mL/kg, TRQI 0.5 mL/kg for 7 days, beagle No. 4): 670 ng·h/mL | AUC(0-t) ([1]; female, iv, 0.5 mL/kg, TRQI 0.5 mL/kg for 7 days, beagle No. 4, read-out: AUC0–24 h): 527 ng·h/mL | AUC(0-inf) ([1]; female, iv, 0.5 mL/kg, TRQI 0.5 mL/kg for 7 days, beagle No. 5): 711 ng·h/mL | AUC(0-t) ([1]; female, iv, 0.5 mL/kg, TRQI 0.5 mL/kg for 7 days, beagle No. 5, read-out: AUC0–24 h): 526 ng·h/mL | AUC(0-inf) ([1]; female, iv, 0.5 mL/kg, TRQI 0.5 mL/kg for 7 days, beagle No. 6): 1290 ng·h/mL | AUC(0-t) ([1]; female, iv, 0.5 mL/kg, TRQI 0.5 mL/kg for 7 days, beagle No. 6, read-out: AUC0–24 h): 865 ng·h/mL | AUC(0-inf) ([1]; female, po, 0.09 g/kg, TRQC 0.09 g/kg for 7 days, beagle No. 4): 88.3 ng·h/mL | AUC(0-t) ([1]; female, po, 0.09 g/kg, TRQC 0.09 g/kg for 7 days, beagle No. 4, read-out: AUC0–24 h): 68 ng·h/mL | AUC(0-inf) ([1]; female, po, 0.09 g/kg, TRQC 0.09 g/kg for 7 days, beagle No. 5): 398 ng·h/mL | AUC(0-t) ([1]; female, po, 0.09 g/kg, TRQC 0.09 g/kg for 7 days, beagle No. 5, read-out: AUC0–24 h): 245 ng·h/mL | AUC(0-inf) ([1]; female, po, 0.09 g/kg, TRQC 0.09 g/kg for 7 days, beagle No. 6): 44.3 ng·h/mL | AUC(0-t) ([1]; female, po, 0.09 g/kg, TRQC 0.09 g/kg for 7 days, beagle No. 6, read-out: AUC0–24 h): 32.5 ng·h/mL | AUC(0-inf) ([1]; male, iv, 0.5 mL/kg, TRQI 0.5 mL/kg for 7 days, beagle No. 1): 45.8 ng·h/mL | AUC(0-t) ([1]; male, iv, 0.5 mL/kg, TRQI 0.5 mL/kg for 7 days, beagle No. 1, read-out: AUC0–24 h): 42.6 ng·h/mL | AUC(0-inf) ([1]; male, iv, 0.5 mL/kg, TRQI 0.5 mL/kg for 7 days, beagle No. 2): 534 ng·h/mL | AUC(0-t) ([1]; male, iv, 0.5 mL/kg, TRQI 0.5 mL/kg for 7 days, beagle No. 2, read-out: AUC0–24 h): 370 ng·h/mL | AUC(0-inf) ([1]; male, iv, 0.5 mL/kg, TRQI 0.5 mL/kg for 7 days, beagle No. 3): 37.6 ng·h/mL | AUC(0-t) ([1]; male, iv, 0.5 mL/kg, TRQI 0.5 mL/kg for 7 days, beagle No. 3, read-out: AUC0–24 h): 36.8 ng·h/mL | AUC(0-inf) ([1]; male, po, 0.09 g/kg, TRQC 0.09 g/kg for 7 days, beagle No. 1): 80.5 ng·h/mL | AUC(0-t) ([1]; male, po, 0.09 g/kg, TRQC 0.09 g/kg for 7 days, beagle No. 1, read-out: AUC0–24 h): 79.6 ng·h/mL | AUC(0-inf) ([1]; male, po, 0.09 g/kg, TRQC 0.09 g/kg for 7 days, beagle No. 2): 164 ng·h/mL | AUC(0-t) ([1]; male, po, 0.09 g/kg, TRQC 0.09 g/kg for 7 days, beagle No. 2, read-out: AUC0–24 h): 149 ng·h/mL | AUC(0-inf) ([1]; male, po, 0.09 g/kg, TRQC 0.09 g/kg for 7 days, beagle No. 3): 74.3 ng·h/mL | AUC(0-t) ([1]; male, po, 0.09 g/kg, TRQC 0.09 g/kg for 7 days, beagle No. 3, read-out: AUC0–24 h): 69.7 ng·h/mL | Freeze-thaw stability (3 cycles) Mean ± S.D. concentration [2, 7]: 202.81 ± 10.87 ng/mL | Long-term stability (30 days at – 80 °C) Mean ± S.D. concentration [2, 7]: 175.01 ± 4.57 ng/mL | Short-term stability (6 h at room temperature) Mean ± S.D concentration [2, 7]: 182.83 ± 7.72 ng/mL | Freeze-thaw stability (3 cycles) Mean ± S.D. concentration [2, 8]: 3.97 ± 0.36 ng/mL | Long-term stability (30 days at – 80 °C) Mean ± S.D. concentration [2, 8]: 3.50 ± 0.07 ng/mL | Short-term stability (6 h at room temperature) Mean ± S.D concentration [2, 8]: 4.01 ± 0.31 ng/mL | Freeze-thaw stability (3 cycles) Mean ± S.D. concentration [2, 9]: 17.88 ± 0.92 ng/mL | Long-term stability (30 days at – 80 °C) Mean ± S.D. concentration [2, 9]: 17.47 ± 0.42 ng/mL | Short-term stability (6 h at room temperature) Mean ± S.D concentration [2, 9]: 18.43 ± 0.75 ng/mL | oral availability ([3]; TRQC in dogs): small | AUC(0-t) ([3]; both sexes, iv, 0.5 mL/kg, single TRQI 0.5 mL/kg, Mean): 44.4 ng·h/mL | Cmax [3, 10]: 1050 ng/mL | Tmax [3, 10]: 0.08 h | half-life [3, 10]: 6.75 h | AUC(0-t) ([3]; both sexes, po, 0.09 g/kg, single TRQCs 0.09 g/kg, Mean): 14.1 ng·h/mL | Cmax [3, 11]: 4.79 ng/mL | Tmax [3, 11]: 3.78 h | half-life [3, 11]: 4.97 h | AUC(0-t) ([3]; female, iv, 0.5 mL/kg, single TRQI 0.5 mL/kg, beagle No 4): 161 ng·h/mL | AUC(0-t) ([3]; female, iv, 0.5 mL/kg, single TRQI 0.5 mL/kg, beagle No 5): 1.98 ng·h/mL | AUC(0-t) ([3]; female, iv, 0.5 mL/kg, single TRQI 0.5 mL/kg, beagle No 6): 39.9 ng·h/mL | AUC(0-t) ([3]; female, po, 0.09 g/kg, single TRQCs 0.09 g/kg, beagle No 4): 15.6 ng·h/mL | AUC(0-t) ([3]; female, po, 0.09 g/kg, single TRQCs 0.09 g/kg, beagle No 5): 1.15 ng·h/mL | AUC(0-t) ([3]; female, po, 0.09 g/kg, single TRQCs 0.09 g/kg, beagle No 6): 3.38 ng·h/mL | AUC(0-t) ([3]; male, iv, 0.5 mL/kg, single TRQI 0.5 mL/kg, beagle No 1): 44.5 ng·h/mL | AUC(0-t) ([3]; male, iv, 0.5 mL/kg, single TRQI 0.5 mL/kg, beagle No 2): 18.7 ng·h/mL | AUC(0-t) ([3]; male, iv, 0.5 mL/kg, single TRQI 0.5 mL/kg, beagle No 3): 0.47 ng·h/mL | AUC(0-t) ([3]; male, po, 0.09 g/kg, single TRQCs 0.09 g/kg, beagle No 1): 16 ng·h/mL | AUC(0-t) ([3]; male, po, 0.09 g/kg, single TRQCs 0.09 g/kg, beagle No 2): 36.4 ng·h/mL | AUC(0-t) ([3]; male, po, 0.09 g/kg, single TRQCs 0.09 g/kg, beagle No 3): 11.8 ng·h/mL | t1/2 ([4]; Hu's study): 0.8 h | t1/2 ([4]; another study): 3.6 h | clearance rate ([4]; rat, TRQI): 24.3 mL/min/kg | volume of distribution ([4]; rat, TRQI): 1.07 L/kg
